According to patent publication US20130217595A1, “METHOD FOR THE IDENTIFICATION OF CATECHOL O-METHYLTRANSFERASE MODULATORS” (Hoffman-La Roche Inc., priority 2010, published 2013):

Target: human COMT (Homo sapiens, UniProt P21964)
Conditions: SAM limited (500 nM); Alexa Fluor 488-Nitrocatechol substrate; FIG. 5
Procedure: The term “kinetic readout” refers to the difference of the fluorescent signal measured at two certain time points in the linear part of an enzymatic reaction. One measurement is done at the beginning of the enzymatic reaction (start-point) and after an incubation time a second readout is performed (end-point). The final signal is then calculated in rfu/min as (rfu(end-point)—rfu(start-point))/incubation time. (rfu: relative fluorescence units)
384-well microtiter plate, Corning black with flat clear bottom, non binding surface, polystyrene (ref. 3655)
Reagent and Buffer Stock Solutions: • Buffer stock solutions: • M Phosphate buffer pH 7.6 (Na2HPO4 Fluka 71644, NaH2PO4 Merck 6346.0500) stored at 4° C. • 580 mM MgCl2 (Merck 1.0833.0250), stored at RT • 1 M CaCl2 stored at 4° C. • 65 mM DTT (Sigma D-0632), stored at −20° C. • Recombinant human COMT: prepared in house, stored at −80° C. • 4-Nitrocatechol-Alexa Fluor 488: prepared in house, 1.3 mM in DMSO, stored at RT in the dark • S-Adenosyl-methionine: 10 mM in H2O (Sigma-Aldirch A2804), stored at −20° C. […]
Readout: kinetic measurement on plate: vision TM reader (exc. 475(40) nm, em. 535(45) nm, intensity 7.5%, exposure time 1 s.

human COMT, sequence (P21964 whole entry): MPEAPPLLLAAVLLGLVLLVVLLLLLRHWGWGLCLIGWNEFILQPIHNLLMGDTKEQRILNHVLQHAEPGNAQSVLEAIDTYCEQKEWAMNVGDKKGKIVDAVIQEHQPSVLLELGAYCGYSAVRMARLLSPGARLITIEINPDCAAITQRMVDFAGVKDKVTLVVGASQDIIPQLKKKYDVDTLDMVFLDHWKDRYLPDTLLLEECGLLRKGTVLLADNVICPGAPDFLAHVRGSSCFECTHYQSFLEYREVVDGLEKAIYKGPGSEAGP

NCCc1ccc(O)c(O)c1 [dopamine]
kinetic fluorescence readout plateau as a function of compound concentration: Decreasing plateaus were reached with increasing dopamine concentrations
